Measured values published in patent US7662767B2, “Polynucleotide intercalator interceptors and inhibitors” (Materials Evolution and Development USA, Inc., priority 2000, dated 2010).

Test system: apChromatin (depurinated chicken erythrocyte nuclear chromatin)
Assay: Acridine orange staining after acid hydrolysis of dsDNA to apurinic acid, fluorescence microscopy
Type: binding
Procedure: Depurination of dsDNA within the nuclear chromatin of chicken erythrocytes was accomplished by using a modification of the Feulgen method (Feulgen and Rossenbeck, 1924). Specifically, the nucleated chicken erythrocyte slide preparations were rinsed in a 1 N solution of HCl at room temperature for 60 seconds. This was followed by placement of the slide in a pre-heated (55° C.) solution of 1 N HCl for 10 minutes under static conditions followed by several rinses in distilled water at room temperature. Slides were allowed to dry at room temperature then stained with AO at two different concentrations, one at 5 mM and the other at 10 μM for 15 min and 2 min, respectively. The depurination of DNA was expected to remove the site on the DNA polymer where AO intercalation can occur.
Solutions of AO were prepared at 5 mM and 10 μM concentrations in distilled water. […] Processed slides were stored in the dark then read and photomicrographs taken (Zeiss Model 63 Microscope, 1600 ASA Kodak film) soon after removal from the dark to avoid photobleaching.
In the example shown in Table 4-1, the chicken erythrocytes were smeared and dried on a microscope slide prior to exposure to two different concentrations of AO (10 μM and 5 mM), rinsed with distilled water, and allowed to dry. Erythrocytes were examined with fluorescence microscopy and the color of the nuclei recorded. […]

SMILES: CN(C)c1ccc2cc3ccc(N(C)C)cc3nc2c1.Cl [AO, 3,6-bis[dimethylamino]acridine hydrochloride]
- Fluorescent Color (AO 10 μM): No Color
- Fluorescent Color (AO 5 mM): Red
